Data from patent US11945806B2, “Stabilization of amyloidogenic immunoglobulin light chains” (The Scripps Research Institute, priority 2019, dated 2024).

Each molecule was assayed against WIL-FL (Homo sapiens, UniProt P01721) (assay: Unlabeled LC Protease Sensitivity Assay (proteinase K)). Settings: small molecule 10 μM, WIL-FL 5 μM, proteinase K 50 nM, 2 hours at 37° C.
Format: biochemical
How it was run: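 WIL-FL light chain (5 μM) in PBS pH 7.4 + 0.02% Pluronic F-127 digested with proteinase K (50 nM) for 2 h at 37 °C with 10 μM compound (1% DMSO). Intact WIL-FL quantified by size-exclusion UPLC (A280). Fold protection = (A_compound−A_vehicle)/(A_no_protease−A_vehicle) from peak areas.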

Question: How did the “Protection (fold protection of LC from protease)” value turn out when `C#CCN(C)c1ccc2c(C)cc(=O)oc2c1` [Compound 257, 4-methyl-7-(methyl(prop-2-yn-1-yl)amino)-2H-chromen-2-one] was run?
Answer: The value was “A (A < 0.3))”.

Question: Which “Protection (fold protection of LC from protease)” value does the source give for `Cc1cc(=O)oc2cc(N(C)CCCF)ccc12` [Compound 258, 7-((3-fluoropropyl)(methyl)amino)-4-methyl-2H-chromen-2-one] here?
Answer: The value was “A (A < 0.3))”.

Question: For `C#CCN(CC=C)c1ccc2c(C)cc(=O)oc2c1` [Compound 259, 7-(allyl(prop-2-yn-1-yl)amino)-4-methyl-2H-chromen-2-one], which “Protection (fold protection of LC from protease)” value is on record?
Answer: The value was “A (A < 0.3))”.

Question: With `C#CCN(CCC)c1ccc2c(C)cc(=O)oc2c1` [Compound 260, 4-methyl-7-(prop-2-yn-1-yl(propyl)amino)-2H-chromen-2-one] as the molecule, how does the “Protection (fold protection of LC from protease)” value read?
Answer: The value was “A (A < 0.3))”.

Question: For `C#CCN(CC(=C)C)c1ccc2c(C)cc(=O)oc2c1` [Compound 261, 4-methyl-7-((2-methylallyl)(prop-2-yn-1-yl)amino)-2H-chromen-2-one], which “Protection (fold protection of LC from protease)” value is on record?
Answer: Its value is “A (A < 0.3))”.

Question: How did the “Protection (fold protection of LC from protease)” value turn out when `C#CCN(CC1CC1)c1ccc2c(C)cc(=O)oc2c1` [Compound 262, 7-((cyclopropylmethyl)(prop-2-yn-1-yl)amino)-4-methyl-2H-chromen-2-one] was run?
Answer: The value was “A (A < 0.3))”.

Question: With `C#CCN(CCC=C)c1ccc2c(C)cc(=O)oc2c1` [Compound 263, 7-(but-3-en-1-yl(prop-2-yn-1-yl)amino)-4-methyl-2H-chromen-2-one] as the molecule, how does the “Protection (fold protection of LC from protease)” value read?
Answer: Its value is “A (A < 0.3))”.

Question: `C#CCN(CCCF)c1ccc2c(C)cc(=O)oc2c1` [Compound 264, 7-((3-fluoropropyl)(prop-2-yn-1-yl)amino)-4-methyl-2H-chromen-2-one] was tested. Which “Protection (fold protection of LC from protease)” value did it give?
Answer: The value was “A (A < 0.3))”.

Question: With `Cc1cc(=O)oc2cc(NCCC(F)(F)F)ccc12` [Compound 265, 4-methyl-7-((3,3,3-trifluoropropyl)amino)-2H-chromen-2-one] as the molecule, how does the “Protection (fold protection of LC from protease)” value read?
Answer: The value was “A (A < 0.3))”.

Question: With `Cc1cc(=O)oc2cc(N(C)C)ccc12` [Compound 266, 7-(dimethylamino)-4-methyl-2H-chromen-2-one] as the molecule, how does the “Protection (fold protection of LC from protease)” value read?
Answer: Its value is “A (A < 0.3))”.

Question: `C#CCNC(=O)c1ccc2c(C)cc(=O)oc2c1` [Compound 267, 4-methyl-2-oxo-N-(prop-2-yn-1-yl)-2H-chromene-7-carboxamide] was tested. Which “Protection (fold protection of LC from protease)” value did it give?
Answer: The value was “A (A < 0.3))”.

Question: How did the “Protection (fold protection of LC from protease)” value turn out when `CCN(C)c1ccc2c(C)cc(=O)oc2c1` [Compound 268, 7-(ethyl(methyl)amino)-4-methyl-2H-chromen-2-one] was run?
Answer: The value was “A (A < 0.3))”.

Question: `Cc1cc(=O)oc2cc(NCC#N)ccc12` [Compound 269, 2-((4-methyl-2-oxo-2H-chromen-7-yl)amino)acetonitrile] was tested. Which “Protection (fold protection of LC from protease)” value did it give?
Answer: Its value is “A (A < 0.3))”.

Question: Which “Protection (fold protection of LC from protease)” value does the source give for `CCNc1ccc2c(C)cc(=O)oc2c1` [Compound 270, 7-(ethylamino)-4-methyl-2H-chromen-2-one] here?
Answer: The value was “A (A < 0.3))”.

Question: How did the “Protection (fold protection of LC from protease)” value turn out when `C#CCN(CC)c1ccc2c(C)cc(=O)oc2c1` [Compound 271, 7-(ethyl(prop-2-yn-1-yl)amino)-4-methyl-2H-chromen-2-one] was run?
Answer: The value was “A (A < 0.3))”.

Question: `CCN(CC#N)c1ccc2c(C)cc(=O)oc2c1` [Compound 272, 2-(ethyl(4-methyl-2-oxo-2H-chromen-7-yl)amino)acetonitrile] was tested. Which “Protection (fold protection of LC from protease)” value did it give?
Answer: The value was “A (A < 0.3))”.

Question: Which “Protection (fold protection of LC from protease)” value does the source give for `CCN(CCF)c1ccc2c(C)cc(=O)oc2c1` [Compound 273, 7-(ethyl(2-fluoroethyl)amino)-4-methyl-2H-chromen-2-one] here?
Answer: The value was “A (A < 0.3))”.

Question: `CCN(c1ccc2c(C)cc(=O)oc2c1)C(C)C` [Compound 274, 7-(ethyl(isopropyl)amino)-4-methyl-2H-chromen-2-one] was tested. Which “Protection (fold protection of LC from protease)” value did it give?
Answer: Its value is “A (A < 0.3))”.

Question: With `CCCN(CC)c1ccc2c(C)cc(=O)oc2c1` [Compound 275, 7-(ethyl(propyl)amino)-4-methyl-2H-chromen-2-one] as the molecule, how does the “Protection (fold protection of LC from protease)” value read?
Answer: Its value is “A (A < 0.3))”.

Question: For `CCN(CC)c1ccc2c(C)c(CCNC(=O)NCc3ccccn3)c(=O)oc2c1` [Compound 276, 1-(2-(7-(diethylamino)-4-methyl-2-oxo-2H-chromen-3-yl)ethyl)-3-(pyridin-2-ylmethyl)urea], which “Protection (fold protection of LC from protease)” value is on record?
Answer: The value was “A (A < 0.3))”.

Question: With `CCN(CC)c1ccc2c(C)c(CCNC(=O)NCc3ccncc3)c(=O)oc2c1` [Compound 277, 1-(2-(7-(diethylamino)-4-methyl-2-oxo-2H-chromen-3-yl)ethyl)-3-(pyridin-4-ylmethyl)urea] as the molecule, how does the “Protection (fold protection of LC from protease)” value read?
Answer: Its value is “B (3 ≤ B < 0.6)”.

Question: How did the “Protection (fold protection of LC from protease)” value turn out when `CCN(CC)c1ccc2c(C)c(CCNC(=O)NCc3ccccc3)c(=O)oc2c1` [Compound 278, 1-benzyl-3-(2-(7-(diethylamino)-4-methyl-2-oxo-2H-chromen-3-yl)ethyl)urea] was run?
Answer: The value was “C (C ≥ 0.6)”.

Question: For `CCN(CC)c1ccc2c(C)c(CCNC(=O)NCc3ccc4[nH]ccc4c3)c(=O)oc2c1` [Compound 279, 1-((1H-indol-5-yl)methyl)-3-(2-(7-(diethylamino)-4-methyl-2-oxo-2H-chromen-3-yl)ethyl)urea], which “Protection (fold protection of LC from protease)” value is on record?
Answer: The value was “A (A < 0.3))”.

Question: With `CCN(CC)c1ccc2c(C)c(CCNC(=O)NCCc3ccc(O)cc3)c(=O)oc2c1` [Compound 280, 1-(2-(7-(diethylamino)-4-methyl-2-oxo-2H-chromen-3-yl)ethyl)-3-(4-hydroxyphenethyl)urea] as the molecule, how does the “Protection (fold protection of LC from protease)” value read?
Answer: The value was “B (3 ≤ B < 0.6)”.

Question: Which “Protection (fold protection of LC from protease)” value does the source give for `CCN(CC)c1ccc2c(C)c(CCNC(=O)NCCc3cnc[nH]3)c(=O)oc2c1` [Compound 281, 1-(2-(1H-imidazol-5-yl)ethyl)-3-(2-(7-(diethylamino)-4-methyl-2-oxo-2H-chromen-3-yl)ethyl)urea] here?
Answer: The value was “B (3 ≤ B < 0.6)”.

Question: For `CCN(CC)c1ccc2c(C)c(CCNC(=O)NCc3cccc(Cl)n3)c(=O)oc2c1` [Compound 282, 1-((6-chloropyridin-2-yl)methyl)-3-(2-(7-(diethylamino)-4-methyl-2-oxo-2H-chromen-3-yl)ethyl)urea], which “Protection (fold protection of LC from protease)” value is on record?
Answer: The value was “B (3 ≤ B < 0.6)”.

Question: Which “Protection (fold protection of LC from protease)” value does the source give for `CCN(CC)c1ccc2c(C)c(CCNC(=O)NCc3ccc(-c4ccccc4)cc3)c(=O)oc2c1` [Compound 283, 1-([1,1′-biphenyl]-4-ylmethyl)-3-(2-(7-(diethylamino)-4-methyl-2-oxo-2H-chromen-3-yl)ethyl)urea] here?
Answer: The value was “A (A < 0.3))”.

Question: For `CCN(CC)c1ccc2c(C)c(CCNC(=O)NCc3cccc(-c4ccccc4)c3)c(=O)oc2c1` [Compound 284, 1-([1,1′-biphenyl]-3-ylmethyl)-3-(2-(7-(diethylamino)-4-methyl-2-oxo-2H-chromen-3-yl)ethyl)urea], which “Protection (fold protection of LC from protease)” value is on record?
Answer: Its value is “B (3 ≤ B < 0.6)”.

Question: Which “Protection (fold protection of LC from protease)” value does the source give for `CCN(CC)c1ccc2c(C)c(CCNC(=O)NCc3cccc4ccccc34)c(=O)oc2c1` [Compound 285, 1-(2-(7-(diethylamino)-4-methyl-2-oxo-2H-chromen-3-yl)ethyl)-3-(naphthalen-1-ylmethyl)urea] here?
Answer: Its value is “A (A < 0.3))”.
